Like-named read-outs stand apart in the source and are kept apart here.
Key:
[1] = molecular target: T1, HDAC6-UBD (HDAC6 1109-1215) (Homo sapiens, UniProt Q9UBN7); test: SPR, steady state; format: binding
T1 sequence (Q9UBN7 1109-1215): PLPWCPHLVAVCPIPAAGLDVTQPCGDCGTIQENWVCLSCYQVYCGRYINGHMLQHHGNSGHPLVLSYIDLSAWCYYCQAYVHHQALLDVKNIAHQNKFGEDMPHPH

USP13 = molecular target: T2, USP13 (Homo sapiens, UniProt Q92995); test: biochemical; set-up: SPR, steady-state binding to immobilised biotinylated UBD proteins
T2 construct: UBD, residues 183-307
T2 sequence (Q92995 1-863): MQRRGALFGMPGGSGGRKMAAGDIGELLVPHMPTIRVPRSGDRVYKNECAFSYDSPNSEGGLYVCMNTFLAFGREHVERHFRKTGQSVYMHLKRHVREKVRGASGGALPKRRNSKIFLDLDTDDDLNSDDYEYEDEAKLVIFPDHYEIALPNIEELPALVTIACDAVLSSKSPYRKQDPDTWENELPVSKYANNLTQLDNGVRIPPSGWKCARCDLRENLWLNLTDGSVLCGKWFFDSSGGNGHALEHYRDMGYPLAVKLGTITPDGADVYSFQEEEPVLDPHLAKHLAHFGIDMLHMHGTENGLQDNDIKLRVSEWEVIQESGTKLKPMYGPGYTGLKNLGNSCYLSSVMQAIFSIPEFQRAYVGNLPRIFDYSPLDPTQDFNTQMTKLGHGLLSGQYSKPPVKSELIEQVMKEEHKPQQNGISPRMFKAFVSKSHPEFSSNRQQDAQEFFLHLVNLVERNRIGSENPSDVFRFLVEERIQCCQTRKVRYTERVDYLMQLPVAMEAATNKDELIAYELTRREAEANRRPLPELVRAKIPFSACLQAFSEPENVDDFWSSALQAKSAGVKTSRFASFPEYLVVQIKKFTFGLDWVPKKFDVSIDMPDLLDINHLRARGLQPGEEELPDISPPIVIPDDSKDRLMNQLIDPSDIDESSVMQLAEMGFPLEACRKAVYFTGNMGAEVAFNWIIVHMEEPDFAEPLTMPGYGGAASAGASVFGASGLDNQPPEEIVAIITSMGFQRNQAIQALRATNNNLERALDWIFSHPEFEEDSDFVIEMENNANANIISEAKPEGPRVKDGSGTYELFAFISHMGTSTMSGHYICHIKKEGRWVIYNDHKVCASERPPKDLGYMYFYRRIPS

USP33 = molecular target: T3, USP33 (Homo sapiens, UniProt Q8TEY7); test: biochemical; set-up: SPR, steady-state binding to immobilised biotinylated UBD proteins
T3 construct: UBD, residues 29-134
T3 sequence (Q8TEY7 1-942): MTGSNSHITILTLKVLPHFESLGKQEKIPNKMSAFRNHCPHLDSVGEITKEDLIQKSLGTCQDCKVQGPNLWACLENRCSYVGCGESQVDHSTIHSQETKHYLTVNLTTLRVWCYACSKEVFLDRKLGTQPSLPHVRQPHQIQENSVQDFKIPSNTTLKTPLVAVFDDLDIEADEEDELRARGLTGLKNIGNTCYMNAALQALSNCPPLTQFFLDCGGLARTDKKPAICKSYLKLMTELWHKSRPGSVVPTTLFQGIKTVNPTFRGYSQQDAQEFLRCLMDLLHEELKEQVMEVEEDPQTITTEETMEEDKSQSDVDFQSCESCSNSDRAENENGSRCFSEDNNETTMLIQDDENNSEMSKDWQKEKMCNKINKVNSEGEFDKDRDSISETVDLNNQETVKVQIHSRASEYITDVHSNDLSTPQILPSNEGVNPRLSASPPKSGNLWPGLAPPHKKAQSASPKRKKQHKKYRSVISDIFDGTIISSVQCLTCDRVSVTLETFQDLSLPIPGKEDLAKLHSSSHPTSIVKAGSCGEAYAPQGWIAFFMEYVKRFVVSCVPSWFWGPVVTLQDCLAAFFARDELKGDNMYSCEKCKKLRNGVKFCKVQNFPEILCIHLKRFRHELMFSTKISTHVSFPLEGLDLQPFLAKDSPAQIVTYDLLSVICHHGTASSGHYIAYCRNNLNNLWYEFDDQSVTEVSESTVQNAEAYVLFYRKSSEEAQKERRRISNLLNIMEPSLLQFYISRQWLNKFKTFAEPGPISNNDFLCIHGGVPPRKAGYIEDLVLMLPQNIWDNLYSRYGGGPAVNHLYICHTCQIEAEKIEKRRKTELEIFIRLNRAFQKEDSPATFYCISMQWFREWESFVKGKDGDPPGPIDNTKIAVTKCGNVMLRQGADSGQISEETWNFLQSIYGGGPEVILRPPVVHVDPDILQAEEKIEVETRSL

USP51 = molecular target: T4, USP51 (Homo sapiens, UniProt Q70EK9); test: biochemical; set-up: SPR, steady-state binding to immobilised biotinylated UBD proteins
T4 construct: UBD, residues 176-305
T4 sequence (Q70EK9 1-711): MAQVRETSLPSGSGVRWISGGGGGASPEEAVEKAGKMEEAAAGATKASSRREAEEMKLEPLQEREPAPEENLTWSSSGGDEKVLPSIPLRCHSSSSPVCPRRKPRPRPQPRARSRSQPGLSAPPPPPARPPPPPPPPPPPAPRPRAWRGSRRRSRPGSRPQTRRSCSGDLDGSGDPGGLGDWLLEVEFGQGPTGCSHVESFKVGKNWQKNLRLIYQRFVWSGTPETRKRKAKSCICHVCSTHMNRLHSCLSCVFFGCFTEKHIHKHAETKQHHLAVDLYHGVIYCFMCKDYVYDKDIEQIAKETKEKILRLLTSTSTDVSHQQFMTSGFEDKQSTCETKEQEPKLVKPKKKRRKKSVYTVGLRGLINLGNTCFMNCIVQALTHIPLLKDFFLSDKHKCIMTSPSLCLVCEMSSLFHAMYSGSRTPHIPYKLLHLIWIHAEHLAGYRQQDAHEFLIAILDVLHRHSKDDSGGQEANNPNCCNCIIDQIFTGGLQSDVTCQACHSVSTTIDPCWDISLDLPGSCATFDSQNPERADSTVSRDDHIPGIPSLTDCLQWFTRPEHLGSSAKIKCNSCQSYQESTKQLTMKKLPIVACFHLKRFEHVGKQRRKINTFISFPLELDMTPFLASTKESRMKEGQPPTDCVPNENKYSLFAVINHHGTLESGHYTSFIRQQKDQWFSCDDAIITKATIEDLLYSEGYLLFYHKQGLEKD

[2] = read-out: Probe KD (nM) SGC-UBD1031
[3] = read-out: Negative Control KD (nM) SGC-UBD1031N

Kd [1] [µM] | Kd (USP13; [2]) [nM] | Kd (USP33; [2]) [nM] | Kd (USP51; [2]) [nM] | Kd (USP13; [3]) [nM] | Kd (USP33; [3]) [nM] | Kd (USP51; [3]) [nM] | Compound
0.016 | > 10000 | > 10000 | > 10000 | – | – | – | C[C@H](NC(=O)Cn1c(CCC(=O)O)nc2c(Cl)cccc2c1=O)c1c(F)cccc1F [compound 15, (S)-3-(8-chloro-3-(2-((1-(2,6-difluorophenyl)ethyl)amino)-2-oxoethyl)-4-oxo-3,4-dihydroquinazolin-2-yl)propanoic acid]
> 5 | – | – | – | > 10000 | > 10000 | > 10000 | C[C@@H](NC(=O)Cn1c(CCC(=O)O)nc2c(Cl)cccc2c1=O)c1c(F)cccc1F [compound 16, (R)-3-(8-chloro-3-(2-((1-(2,6-difluorophenyl)ethyl)amino)-2-oxoethyl)-4-oxo-3,4-dihydroquinazolin-2-yl)propanoic acid]

Source: article doi:10.1101/2025.10.23.684218v2, “Development of a dual chemical probe for the USP16 and HDAC6 zinc-finger ubiquitin-binding domain” (biorxiv, 2025)
